The values below come from ChEMBL document CHEMBL1201862, “PubChem BioAssay data set” (2004).

One assay addresses Nonstructural protein 1 (Influenza A virus, UniProt Q194T2). The class given is functional, Influenza A virus (A/California/07/2009(H1N1)).
A short description of assay [1]: P. falciparum 3D7-ScDHODH growth inhibitors, dose response, SYBR Green, dry powder samples (AID 1159570).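 Further: parasite growth measured after 72 hours of compound exposure.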 The class given is functional, cell-based.
Assay [2] can be described thus: P. falciparum Dd2 growth inhibitors, dose response, SYBR Green, cherry-picked samples (AID 1159567). In kind it is functional, cell-based.
Assay [3] in a line: HepG2 cell cytotoxicity, dose response, cytotoxicity control, plate reader, dry powder samples (AID 1159569).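 Further: inhibitor potency with signal falling toward the positive control level.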 In kind it is functional, cell-based.
Assay [4] can be described thus: P. falciparum ATP4 D1247Y mutant growth inhibitors, dose response, NITD609-resistant line, SYBR Green, dry powder (AID 1159571).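 Further: parasites synchronized at ring stage by sorbitol before testing.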 In kind it is functional, cell-based.
Assay [5] in a line: P. falciparum Dd2 growth inhibitors, dose response, SYBR Green, dry powder samples (AID 1159566).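 Further: potency for growth inhibition with lower SYBR green DNA signal.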 In kind it is functional, cell-based.

Calls of active or inactive are those of the source.

Nonstructural protein 1, sequence (Q194T2 whole entry): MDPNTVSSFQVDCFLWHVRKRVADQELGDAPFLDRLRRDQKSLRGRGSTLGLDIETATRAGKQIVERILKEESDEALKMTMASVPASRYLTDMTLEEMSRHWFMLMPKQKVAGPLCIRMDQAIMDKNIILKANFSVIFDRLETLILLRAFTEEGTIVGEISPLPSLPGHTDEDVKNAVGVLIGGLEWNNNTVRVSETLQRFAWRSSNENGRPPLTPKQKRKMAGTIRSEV

One may read the IC50 as the concentration needed to halve the response being measured. As to `Cc1[nH]n(-c2ccccc2)c(=O)c1N=Nc1ccc(F)cc1`, the IC50 on Nonstructural protein 1 was 84700 nM (active).
By AC50 is commonly meant the midpoint of the concentration-response curve, whichever way the signal moves. For the compound `CC(C)(C)[S@@+]([O-])N1Cc2cc(C(=O)NCCN3CCCCC3)nc(-c3cccc(-c4ccc(C#N)cc4)c3)c2[C@H]1CCO`, the AC50 is 3540 nM (active) in assay [1]; 2790 nM (active) in assay [2]; 63200 nM (active) in assay [3]; 2900 nM (active) in assay [4]; 2370 nM (active) in assay [5].
With `CCCCNc1c([N+](=O)[O-])ccc2c1=NC1(CCCCC1)[N+]=2[O-]`, the IC50 at Nonstructural protein 1 was 43800 nM (active).
Take `COc1ccc(S(=O)(=O)N(C)C[C@@H]2Oc3cc(-c4ccccc4OC)ccc3S(=O)(=O)N([C@H](C)CO)C[C@H]2C)cc1`: the AC50 was 894 nM (active) in assay [1]; 1120 nM (active) in assay [2]; > 100000 nM (inactive) in assay [3]; 766 nM (active) in assay [4]; 653 nM (active) in assay [5].
